Like-named read-outs stand apart in the source and are kept apart here.
Key:
[1] = tested on: hyperlipidemia caused by the administration of TRITON; experiment: Triton test: lipid regulating activity in hyperlipidemia caused by TRITON W. R.; type: in vivo, WISTAR male rats; conditions: Rattus norvegicus, po, 250 mg/kg orally, 6 hours and/or 24 hours
Method: In a first series of experiments, products were tested on a hyperlipidemia caused by the administration of TRITON according to the following procedure.
The tests were carried out on groups of five WISTAR male rats whose weight varied from 150 to 175 g.
The tested products were administered, orally in the form of a 3% aqueous solution of tragacanth gum in the ratio of 1 ml per 100 g of body weight, in an amount corresponding to 250 mg/kg.
To carry out these tests, a hyperlipidemia was caused in the animals, by means of the product marketed by the ROHM and HAAS Company under the name TRITON W. R.
On this hyperlipidemia the effects obtained by the administration of the active substances according to the invention, are observed.
The tests were carried out as follows:
the rats were fasted for 18 hours, then the TRITON W. R. was administered intravenously in 10% aqueous solution in the proportion of 200 mg/kg;
simultaneously 250 mg/kg of the product under test was administered orally;
6 hours and/or 24 hours later, blood assays were carried out conventionally.
to the total cholesterol, […]

[2] = tested on: atherosclerosis inducing diet (cholesterol, cholic acid, vitamine D2); experiment: Atherosclerosis inducing diet: biochemical exams; type: in vivo, Wistar female rats; design: CHOLESTEROL T, % reduction with respect to the control diet / CHOLESTEROL HDL, % with respect to the control diet / CHOLESTEROL LDL, % reduction with respect to the control diet / TRIGLYCERIDES, % reduction with respect to the control diet: concentration or dose not given beside the values
Method: (§1) In a second experimental series, tha activity of certain products according to the invention were tested on animals which had received an atherosclerosis inducing diet for a long period.
(§2) The test was carried out on Wistar female rats, of weight about 160-180 g.
(§3) The animals received food coming from the National Nutrition plant of Villemoisson-sur-Orge, France, and denoted by the reference UAR AO3, enriched in cholesterol (0.5%) and in cholic acid (0.5%).
(§4) After 15 days of the atherosclerosis inducing diet and whilst maintaining the animals on an atherosclerosis inducing diet, they were given orally for 4 days 250.000 iu/kg of vitamine D2 marketed under the name Sterogyl 25H, in solution in olive oil.
(§5) Then the products under study were administered for 4 weeks, from the end of the administration of the lesion-inducing agent.
At the end of the study, biochemical examinations were carried out on all the animals [total cholesterol, high density lipoprotein (HDL) and cholesterol low density lipoprotein (LDL), and triglycerides].
(§6) Then the pecentage reduction with respect to the diet controls and the score were calculated, that is to say the ratio of the intensity of the activity of the product tested with respect to that of the activity of clofibrate, reckoned as 1.
Table IX gives the detailed results of the biochemical examination:
(a) in % reduction with respect to the control die;
(b) as score, with respect to the reference product, clofibrate, the latter being counted as 1.

atherosclerosis lesions = experiment: Atherosclerosis inducing diet: macroscopic exams (affected animals); type: in vivo, Wistar female rats
Method: as §1, §2, §3, §4, §5
At the end of the study, all the animals still alive were sacrificed, and various organs were removed, particularly the aorta, for histological study of the latter. Two criteria were examined: the number of atherosclerosis areas and the severity of the lesions.
as §6
Table X gives the results of macroscopic examinations:
(a) in % decrease in animals afflicted with lesions;
(b) as score with respect to the reference clofibrate, of which the score was counted as 1.

[3] = read-out: Total cholesterol, % of decrease with respect to Triton control
[4] = read-out: Total lipids, % of decrease with respect to Triton control
[5] = read-out: Triglycerides, % of decrease with respect to Triton control

## O=C(O)CCCCCNS(=O)(=O)c1cccs1 [compound 800]
[1]; [3]
  change in vivo at 250 mg/kg: -13%
[1]; [4]
  change in vivo at 250 mg/kg: -33%
[1]; [5]
  change in vivo at 250 mg/kg: -5%

## COc1cc([N+](=O)[O-])c(Cl)cc1S(=O)(=O)NCCCCCCCC(=O)O [compound 504]
[1]; [3]
  change in vivo at 250 mg/kg: -45%

## CCOC(=O)CCCCCNS(=O)(=O)c1cc(Cl)c(N)cc1OC [compound 469]
[1]; [3]
  change in vivo at 250 mg/kg: -3%
[1]; [4]
  change in vivo at 250 mg/kg: -30%
[1]; [5]
  change in vivo at 250 mg/kg: -28%

## CCOC(=O)CCCCCNS(=O)(=O)c1cccc(N)c1 [compound 682]
[1]; [4]
  change in vivo at 250 mg/kg: -22%
[1]; [5]
  change in vivo at 250 mg/kg: -34%

## CCOC(=O)CCCCCCCCCCNS(=O)(=O)c1ccc([N+](=O)[O-])cc1OC [compound 611]
[1]; [3]
  change in vivo at 250 mg/kg: -29%
[1]; [4]
  change in vivo at 250 mg/kg: -15%

## COc1cc(N)ccc1S(=O)(=O)NCCCCCCCCCCC(=O)O [compound 668]
[1]; [3]
  change in vivo at 250 mg/kg: -27%
[1]; [4]
  change in vivo at 250 mg/kg: -20%
[1]; [5]
  change in vivo at 250 mg/kg: -29%

## CCOC(=O)CCCCCCCCCCNS(=O)(=O)c1ccc(N)cc1 [compound 626]
[1]; [3]
  change in vivo at 250 mg/kg: -18%

## CCOC(=O)CCCCCNS(=O)(=O)c1ccc([N+](=O)[O-])cc1 [compound 563]
[1]; [3]
  change in vivo at 250 mg/kg: -8%
[1]; [4]
  change in vivo at 250 mg/kg: -27%

## CCOC(=O)CCCNS(=O)(=O)c1ccc(N)cc1OC [compound 656]
[1]; [3]
  change in vivo at 250 mg/kg: -14%
[1]; [4]
  change in vivo at 250 mg/kg: -3%
[1]; [5]
  change in vivo at 250 mg/kg: -29%

## CCOC(=O)CCCCCNS(=O)(=O)c1cc(Cl)c([N+](=O)[O-])cc1OC [compound 380, ethyl ester of (5-chloro 4-nitro 2-methoxy benzenesulfonamide)caproic acid]
[1]; [3]
  change in vivo at 250 mg/kg: -19%
[1]; [4]
  change in vivo at 250 mg/kg: -31%
[1]; [5]
  change in vivo at 250 mg/kg: -86%

## Nc1cccc(S(=O)(=O)NCCCC(=O)O)c1 [compound 680]
[1]; [4]
  change in vivo at 250 mg/kg: -46%
[1]; [5]
  change in vivo at 250 mg/kg: -16%

## O=C(O)CCCNS(=O)(=O)c1cccnc1 [compound 786]
[1]; [3]
  change in vivo at 250 mg/kg: -36%
[1]; [4]
  change in vivo at 250 mg/kg: -24%
[1]; [5]
  change in vivo at 250 mg/kg: -17%
[2]; 4 weeks administration
  TRIGLYCERIDES, % reduction with respect to the control diet: -17,24%
[2]; HDL, 4 weeks administration
  CHOLESTEROL HDL, % with respect to the control diet: -20,83%
[2]; LDL, 4 weeks administration
  CHOLESTEROL LDL, % reduction with respect to the control diet: -57,07%
[2]; clofibrate counted as 1
  CHOLESTEROL LDL, Score with respect to clofibrate: 1,03
  CHOLESTEROL T, Score with respect to clofibrate: 1,11
  TRIGLYCERIDES, Score with respect to clofibrate: 0,71
[2]; total cholesterol, 4 weeks administration
  CHOLESTEROL T, % reduction with respect to the control diet: -54,22%
Atherosclerosis lesions
  % decrease in animals afflicted with lesions: 6,67%
Atherosclerosis lesions; clofibrate counted as 1
  Score with respect to the reference clofibrate (animals afflicted with lesions): 0,37
Atherosclerosis lesions; macroscopic exams, TEM-diet 100
  AFFECTED ANIMALS %: 93,33%

## Nc1cccc(S(=O)(=O)NCCCCCCCCCCC(=O)O)c1 [compound 695]
[1]; [3]
  change in vivo at 250 mg/kg: -24%
[1]; [4]
  change in vivo at 250 mg/kg: -20%
[1]; [5]
  change in vivo at 250 mg/kg: -27%

## CCOC(=O)CCCCCCCCCCNS(=O)(=O)c1cccc(N)c1 [compound 683]
[1]; [4]
  change in vivo at 250 mg/kg: -19%
[1]; [5]
  change in vivo at 250 mg/kg: -52%

## COc1cc([N+](=O)[O-])c(Cl)cc1S(=O)(=O)NCCCCCCCCCCC(=O)O [compound 501]
[1]; [3]
  change in vivo at 250 mg/kg: -24%
[1]; [4]
  change in vivo at 250 mg/kg: -17%
[1]; [5]
  change in vivo at 250 mg/kg: -18%

## CCOC(=O)CCCNS(=O)(=O)c1ccc([N+](=O)[O-])cc1OC [compound 625]
[1]; [5]
  change in vivo at 250 mg/kg: -5%

## CCOC(=O)CCCNS(=O)(=O)c1cc(Cl)c([N+](=O)[O-])cc1OC [compound 486]
[1]; [4]
  change in vivo at 250 mg/kg: -66%
[1]; [5]
  change in vivo at 250 mg/kg: -21%

## COc1cc([N+](=O)[O-])ccc1S(=O)(=O)NCCCC(=O)O [compound 660]
[1]; [3]
  change in vivo at 250 mg/kg: -42%
[1]; [4]
  change in vivo at 250 mg/kg: -36%
[1]; [5]
  change in vivo at 250 mg/kg: -90%

## O=C(O)CCCCCCCCCCNS(=O)(=O)c1cccs1 [compound 823]
[1]; [3]
  change in vivo at 250 mg/kg: -41%
[1]; [4]
  change in vivo at 250 mg/kg: -25%

## CCOC(=O)CCCNS(=O)(=O)c1ccc(N)cc1 [compound 624]
[1]; [3]
  change in vivo at 250 mg/kg: -18%

## CCOC(=O)CCCCCNS(=O)(=O)c1ccc(N)cc1 [compound 609]
[1]; [3]
  change in vivo at 250 mg/kg: -40%
[1]; [5]
  change in vivo at 250 mg/kg: -2%

## O=C(O)CCCCCCCCCCNS(=O)(=O)c1cccc([N+](=O)[O-])c1 [compound 697]
[1]; [3]
  change in vivo at 250 mg/kg: -46%
[1]; [4]
  change in vivo at 250 mg/kg: -35%
[1]; [5]
  change in vivo at 250 mg/kg: -50%

## CCOC(=O)CCCCCNS(=O)(=O)c1ccc([N+](=O)[O-])cc1OC [compound 608]
[1]; [3]
  change in vivo at 250 mg/kg: -19%
[1]; [4]
  change in vivo at 250 mg/kg: -15%

## CCOC(=O)CCCCCCCNS(=O)(=O)c1cc(Cl)c(N)cc1OC [compound 730]
[1]; [5]
  change in vivo at 250 mg/kg: -10%

## CCOC(=O)CCCCCNS(=O)(=O)c1cccc([N+](=O)[O-])c1 [compound 666]
[1]; [4]
  change in vivo at 250 mg/kg: -20%

## CCOC(=O)CCCCCNS(=O)(=O)c1ccc(N)cc1OC [compound 612]
[1]; [3]
  change in vivo at 250 mg/kg: -1%
[1]; [4]
  change in vivo at 250 mg/kg: -48%
[1]; [5]
  change in vivo at 250 mg/kg: -13%

## CCOC(=O)CCCCCCCCCCNS(=O)(=O)c1ccc(Cl)cc1 [compound 728]
[1]; [4]
  change in vivo at 250 mg/kg: -32%
[1]; [5]
  change in vivo at 250 mg/kg: -53%

## CCOC(=O)CCCCCCCCCCNS(=O)(=O)c1ccc([N+](=O)[O-])cc1 [compound 610]
[1]; [3]
  change in vivo at 250 mg/kg: -20%
[1]; [4]
  change in vivo at 250 mg/kg: -2%

## Nc1ccc(S(=O)(=O)NCCCCCCCCCCC(=O)O)cc1 [compound 667]
[1]; [3]
  change in vivo at 250 mg/kg: -7%
[1]; [4]
  change in vivo at 250 mg/kg: -45%

## COc1cc([N+](=O)[O-])ccc1S(=O)(=O)NCCCCCC(=O)O [compound 696, ε(4-nitro 2-methoxybenzenesulfonamido)caproic acid]
[1]; [3]
  change in vivo at 250 mg/kg: -56%
[1]; [4]
  change in vivo at 250 mg/kg: -46%
[1]; [5]
  change in vivo at 250 mg/kg: -59%

## CCOC(=O)CCCNS(=O)(=O)c1cc(Cl)c(N)cc1OC [compound 484]
[1]; [4]
  change in vivo at 250 mg/kg: -41%

## O=C(O)CCCCCCCCCCNS(=O)(=O)c1ccc([N+](=O)[O-])cc1 [compound 564]
[1]; [4]
  change in vivo at 250 mg/kg: -37%
[1]; [5]
  change in vivo at 250 mg/kg: -15%

## CCOC(=O)CCCCCCCCCCNS(=O)(=O)c1cc(Cl)c(N)cc1OC [compound 503]
[1]; [4]
  change in vivo at 250 mg/kg: -26%
[1]; [5]
  change in vivo at 250 mg/kg: -18%

## O=C(O)CCCCCNS(=O)(=O)c1ccc([N+](=O)[O-])cc1 [compound 562]
[1]; [4]
  change in vivo at 250 mg/kg: -6%

## CCOC(=O)CCCCCCCNS(=O)(=O)c1cc(Cl)c([N+](=O)[O-])cc1OC [compound 508]
[1]; [3]
  change in vivo at 250 mg/kg: -8%
[1]; [4]
  change in vivo at 250 mg/kg: -17%

## COc1cc([N+](=O)[O-])ccc1S(=O)(=O)NCCCCCCCCCCC(=O)O [compound 661]
[1]; [3]
  change in vivo at 250 mg/kg: -37%
[1]; [5]
  change in vivo at 250 mg/kg: -86%

## COc1cc(N)ccc1S(=O)(=O)NCCCCCC(=O)O [compound 694, ε(4-amino 2-methoxybenzenesulfonamido)caproic acid]
[1]; [3]
  change in vivo at 250 mg/kg: -32%
[1]; [4]
  change in vivo at 250 mg/kg: -31%
[1]; [5]
  change in vivo at 250 mg/kg: -65%

From patent US4613618A, “Method for treating disorders of lipid metabolism using benzene sulfonamides” (Choay S.A., priority 1981, dated 1986)
